Experimental data taken from PMC9033141, “Beta and Gamma Amino Acid-Substituted Benzenesulfonamides as Inhibitors of Human Carbonic Anhydrases” (Pharmaceuticals, 2022).
Where two headings read alike, the source gives them in different places.

Legend:
CAXIV = molecular target: T1, CAXIV (Homo sapiens, UniProt Q9ULX7); experiment: Fluorescent thermal shift assay (FTSA), CAXIV; format: binding; details: for Intrinsic Gibbs energy change (ΔGint), CAXIV: 37 °C, calculated (Equation 5); for Kd: FTSA, pH 7.0, 37 °C, read-out: Observed Dissociation Constant (Kd_obs), CAXIV;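 for all read-outs here: recombinant human CA XIV from E. coli, ANS-based thermal shift: Kd_obs fitted from melting temperature versus ligand concentration, ΔGint from Kd_obs corrected for deprotonated sulfonamide and Zn-water fractions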
T1 construct: made in house; host or cells: E. coli

CAII [1] = molecular target: T2, CAII (Homo sapiens, UniProt P00918); experiment: biochemical; format: binding; details: for Intrinsic Gibbs energy change (ΔGint), CAII: 37 °C, calculated (Equation 5); for Kd: FTSA, pH 7.0, 37 °C, read-out: Observed Dissociation Constant (Kd_obs), CAII
T2 construct: made in house; host or cells: E. coli

CAVA = molecular target: T3, CAVA (Homo sapiens, UniProt P35218); experiment: Fluorescent thermal shift assay (FTSA), CAVA; format: binding; details: for Kd: FTSA, pH 7.0, 37 °C, read-out: Observed Dissociation Constant (Kd_obs), CAVA
T3 construct: made in house; host or cells: E. coli
Procedure: (§1) Human CA isozymes were expressed in E. coli (CAI, II, III, IV, VA, VB, VII, XII, XIII, XIV) or mammalian cells (CAVI and CAIX), chromatographically purified following the published protocols [47], and stored at −80 °C. The protein concentration was determined by UV absorption at 280 nm using Beer–Lambert law.
(§2) The QIAGEN Rotor-Gene Q was used to carry out the experiments, with a blue channel used for excitation (365 nm) and detection (460 nm). FTSA in this case relies on an extrinsic probe, 8-anilino-1-naphthalenesulfonate (ANS), to detect the fluorescence increase during protein denaturation, from which protein melting temperature (Tm) can be determined. […] The observed affinity of ligands for CAs was determined by plotting the Tm as a function of ligand concentration and then fitting a curve as described previously [48]. […] Samples were heated from 25 °C to 99 °C at the speed of 1 °C/min.
(§3) The intrinsic thermodynamic parameters were calculated as described in [40]. The intrinsic reaction of inhibitor binding to CA is shown in Equation (1). […] It is known that CA proteins bind sulfonamides only when water molecules are coordinated to the Zn(II) ion, and sulfonamides only bind to CA proteins when their amino group is deprotonated (confirmed by neutron crystallography [53, 54, 55]):(1) CA Zn^II−H2O+RSO2NH^−⇄ CA Zn^II−NH SO2R+H2O
(§4) When calculating Kd_int values, these protein and ligand fractions from Equation (1) have to be accounted for (Equations (2) and (3)). The intrinsic dissociation constant is calculated by multiplying Kd_obs value by the corresponding fractions of protein and ligand (Equation (4)). (2) fRSO2NH^−=10^pH−pKa_RSO2NH2/1+10^pH−pKa_RSO2NH2 (3) fCAZnH2O=1−10^pH−pKa_CAZnH2O/1+10^pH−pKa_CAZnH2O (4) Kd_int=Kd_obs×fRSO2NH^−×fCAZnH2O (5) ΔGint0=RTlnKd_int
(§5) The intrinsic standard Gibbs energy changes upon binding were calculated using Equation (5). Here, R—universal ideal gas constant (8.3144 J/mol·K), T—absolute temperature (310.15 K).

CAIV = molecular target: T4, CAIV (Homo sapiens, UniProt P22748); experiment: Fluorescent thermal shift assay (FTSA), CAIV; format: binding; details: for Intrinsic Gibbs energy change (ΔGint), CAIV: 37 °C, calculated (Equation 5); for Kd: FTSA, pH 7.0, 37 °C, read-out: Observed Dissociation Constant (Kd_obs), CAIV;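 for all read-outs here: recombinant human enzyme, thermal denaturation followed by ANS fluorescence, melting temperature versus ligand concentration fitted for Kd_obs, intrinsic value corrected for deprotonated sulfonamide and Zn-bound water fractions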
T4 construct: made in house; host or cells: E. coli
Procedure: as §1, §2, §3, §4, §5

CAVI = molecular target: T5, CAVI (Homo sapiens, UniProt P23280); experiment: Fluorescent thermal shift assay (FTSA), CAVI; format: binding; details: for Intrinsic Gibbs energy change (ΔGint), CAVI: 37 °C, calculated (Equation 5); for Kd: FTSA, pH 7.0, 37 °C, read-out: Observed Dissociation Constant (Kd_obs), CAVI;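 for all read-outs here: human CAVI expressed in mammalian cells, ANS fluorescence tracked during thermal unfolding, melting temperature fitted against ligand concentration, intrinsic values corrected for deprotonated sulfonamide and Zn-bound water fractions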
T5 construct: made in house
Procedure: as §1, §2, §3, §4, §5

[2] = Determination of compound sulfonamide group pKa (UV-Vis spectra at different pH); format: physicochemical
Procedure: To calculate the intrinsic thermodynamic parameters of compound binding to CA isozymes, the pKa values of the sulfonamide group and the water molecule bound to the Zn(II) ion at the active site of CA proteins had to be determined. The pKa values for CA isozyme-bound water molecules were taken from, CAI—8.1; CAII—6.9; CAIII—6.5; CAIV—6.6; CAVA—6.7; CAVB—7.0; CAVI—6.0; CAVII—6.8; CAIX—6.6; CAXII—6.8; CAXIII—8.0; CAXIV—6.1. […] The pKa values were calculated as described previously in [28, 52] by normalizing the absorbance, plotting it as a function of pH, then fitting to the Henderson–Hasselbalch equation using the least square method (Figure S105).
Since the pKa values were only able to be measured for compound group 26–36, due to universal buffer pH limitations, intrinsic thermodynamic parameters were not calculated for compounds 2(a,b)–25(a,b), only for compounds 26–36 using experimentally obtained pKa values when possible and using the average pKa value mentioned above for compounds not measured.

CAXIII [3] = molecular target: T6, CAXIII (Homo sapiens, UniProt Q8N1Q1); details: 37 °C; calculated (Equation 5);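 note: recombinant human CAXIII melting temperature tracked by ANS fluorescence in thermal shift assay, Tm fitted against ligand concentration, intrinsic value corrects Kd for deprotonated sulfonamide and Zn-bound water fractions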
Procedure: as §1, §2
(§6) The intrinsic thermodynamic parameters were calculated as described in [40]. The intrinsic reaction of inhibitor binding to CA is shown in Equation (1).
as §4, §5

CAI [4] = molecular target: T7, CAI (Homo sapiens, UniProt P00915); experiment: biochemical; format: binding; details: for Intrinsic Gibbs energy change (ΔGint), CAI: 37 °C, calculated (Equation 5); for Kd: FTSA, pH 7.0, 37 °C, read-out: Observed Dissociation Constant (Kd_obs), CAI
T7 construct: made in house; host or cells: E. coli
Procedure: as §1, §2, §6, §4, §5

CAIII = molecular target: T8, CAIII (Homo sapiens, UniProt P07451); experiment: Fluorescent thermal shift assay (FTSA), CAIII; format: binding; details: for Kd: FTSA, pH 7.0, 37 °C, read-out: Observed Dissociation Constant (Kd_obs), CAIII; for Intrinsic Gibbs energy change (ΔGint), CAIII: 37 °C, calculated (Equation 5)
T8 construct: made in house; host or cells: E. coli
Procedure: as §1, §2, §3, §4, §5

CAXII [5] = molecular target: T9, CAXII (Homo sapiens, UniProt O43570); experiment: biochemical; format: binding; details: for Intrinsic Gibbs energy change (ΔGint), CAXII: 37 °C, calculated (Equation 5); for Kd: FTSA, pH 7.0, 37 °C, read-out: Observed Dissociation Constant (Kd_obs), CAXII
T9 construct: made in house; host or cells: E. coli
Procedure: as §1, §2, §6, §4, §5

CAVB = molecular target: T10, CAVB (Homo sapiens, UniProt Q9Y2D0); experiment: Fluorescent thermal shift assay (FTSA), CAVB; format: binding; details: for Intrinsic Gibbs energy change (ΔGint), CAVB: 37 °C, calculated (Equation 5); for Kd: FTSA, pH 7.0, 37 °C, read-out: Observed Dissociation Constant (Kd_obs), CAVB
T10 construct: made in house; host or cells: E. coli

CAIX [6] = molecular target: T11, CAIX (Homo sapiens, UniProt Q16790); experiment: biochemical; format: binding; details: for Intrinsic Gibbs energy change (ΔGint), CAIX: 37 °C, calculated (Equation 5); for Kd: FTSA, pH 7.0, 37 °C, read-out: Observed Dissociation Constant (Kd_obs), CAIX
T11 construct: made in house

CAVII = molecular target: T12, CAVII (Homo sapiens, UniProt P43166); experiment: Fluorescent thermal shift assay (FTSA), CAVII; format: binding; details: for Intrinsic Gibbs energy change (ΔGint), CAVII: 37 °C, calculated (Equation 5); for Kd: FTSA, pH 7.0, 37 °C, read-out: Observed Dissociation Constant (Kd_obs), CAVII
T12 construct: made in house; host or cells: E. coli
Procedure: as §1, §2, §3, §4, §5

CAXIII [7] = molecular target: T6, CAXIII; experiment: biochemical; details: Observed Dissociation Constant (Kd_obs), FTSA, pH 7.0, 37 °C
Procedure: as §1, §2, §6, §4, §5

CAIX [8] = molecular target: T11, CAIX; details: FTSA, pH 7.0, 37 °C; taken from previous publication; read-out: Observed Dissociation Constant (Kd_obs), CAIX; cited from earlier work
CAII [9] = molecular target: T2, CAII; details: FTSA, pH 7.0, 37 °C; taken from previous publication; read-out: Observed Dissociation Constant (Kd_obs), CAII; cited from earlier work
CAI [10] = molecular target: T7, CAI; details: FTSA, pH 7.0, 37 °C; taken from previous publication; read-out: Observed Dissociation Constant (Kd_obs), CAI; cited from earlier work
CAXII [11] = molecular target: T9, CAXII; details: FTSA, pH 7.0, 37 °C; taken from previous publication; read-out: Observed Dissociation Constant (Kd_obs), CAXII; cited from earlier work
[12] = universal buffer, spectrophotometric, 37 °C, read-out: Sulfonamide pKa

T10 sequence (Q9Y2D0 34-317): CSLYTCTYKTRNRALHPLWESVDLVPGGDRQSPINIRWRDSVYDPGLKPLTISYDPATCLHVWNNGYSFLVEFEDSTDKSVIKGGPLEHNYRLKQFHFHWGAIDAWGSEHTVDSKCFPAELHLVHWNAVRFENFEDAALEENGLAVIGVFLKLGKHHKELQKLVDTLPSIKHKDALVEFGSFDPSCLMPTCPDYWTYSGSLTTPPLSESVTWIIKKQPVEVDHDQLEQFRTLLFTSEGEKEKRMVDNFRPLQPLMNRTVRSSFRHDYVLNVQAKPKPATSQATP
T4 sequence (P22748 19-312): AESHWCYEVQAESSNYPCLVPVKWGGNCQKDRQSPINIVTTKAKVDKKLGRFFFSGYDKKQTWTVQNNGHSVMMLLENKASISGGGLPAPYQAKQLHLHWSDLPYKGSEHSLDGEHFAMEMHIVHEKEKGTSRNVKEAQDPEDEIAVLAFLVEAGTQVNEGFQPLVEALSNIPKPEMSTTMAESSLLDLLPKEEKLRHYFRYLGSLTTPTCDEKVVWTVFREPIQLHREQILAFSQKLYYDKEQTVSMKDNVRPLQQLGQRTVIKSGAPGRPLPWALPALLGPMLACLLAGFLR
T5 sequence (P23280 21-290 limits assumed): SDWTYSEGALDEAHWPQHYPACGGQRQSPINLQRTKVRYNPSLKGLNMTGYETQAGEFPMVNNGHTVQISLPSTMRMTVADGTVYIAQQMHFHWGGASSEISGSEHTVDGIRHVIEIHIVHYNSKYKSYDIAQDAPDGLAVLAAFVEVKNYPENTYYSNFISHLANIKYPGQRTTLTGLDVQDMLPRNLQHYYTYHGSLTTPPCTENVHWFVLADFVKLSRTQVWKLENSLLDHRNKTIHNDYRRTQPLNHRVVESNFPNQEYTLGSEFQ
T12 sequence (P43166 whole entry): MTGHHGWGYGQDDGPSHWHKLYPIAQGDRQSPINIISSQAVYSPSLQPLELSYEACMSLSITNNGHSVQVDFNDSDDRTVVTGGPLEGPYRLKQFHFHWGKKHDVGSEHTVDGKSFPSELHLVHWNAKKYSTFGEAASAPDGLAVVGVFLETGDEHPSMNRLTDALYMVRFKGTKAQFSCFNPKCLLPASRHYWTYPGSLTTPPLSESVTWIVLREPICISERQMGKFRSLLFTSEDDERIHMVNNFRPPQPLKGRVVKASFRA
T8 sequence (P07451 whole entry): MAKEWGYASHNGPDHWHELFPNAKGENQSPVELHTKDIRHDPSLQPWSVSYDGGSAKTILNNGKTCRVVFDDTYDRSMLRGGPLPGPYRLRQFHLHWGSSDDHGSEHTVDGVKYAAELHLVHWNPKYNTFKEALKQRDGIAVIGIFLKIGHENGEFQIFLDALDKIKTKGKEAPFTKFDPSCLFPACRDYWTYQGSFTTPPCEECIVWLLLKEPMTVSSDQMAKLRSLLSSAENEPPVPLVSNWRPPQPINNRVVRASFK
T7 sequence (P00915 whole entry): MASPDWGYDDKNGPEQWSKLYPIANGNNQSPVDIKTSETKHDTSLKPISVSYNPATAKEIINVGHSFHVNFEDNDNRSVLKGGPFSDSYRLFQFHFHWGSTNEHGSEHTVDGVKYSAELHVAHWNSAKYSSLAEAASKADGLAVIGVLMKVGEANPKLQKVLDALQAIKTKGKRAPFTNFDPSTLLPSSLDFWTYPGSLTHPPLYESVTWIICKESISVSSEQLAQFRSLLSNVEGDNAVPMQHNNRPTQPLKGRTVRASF
T1 sequence (Q9ULX7 16-337): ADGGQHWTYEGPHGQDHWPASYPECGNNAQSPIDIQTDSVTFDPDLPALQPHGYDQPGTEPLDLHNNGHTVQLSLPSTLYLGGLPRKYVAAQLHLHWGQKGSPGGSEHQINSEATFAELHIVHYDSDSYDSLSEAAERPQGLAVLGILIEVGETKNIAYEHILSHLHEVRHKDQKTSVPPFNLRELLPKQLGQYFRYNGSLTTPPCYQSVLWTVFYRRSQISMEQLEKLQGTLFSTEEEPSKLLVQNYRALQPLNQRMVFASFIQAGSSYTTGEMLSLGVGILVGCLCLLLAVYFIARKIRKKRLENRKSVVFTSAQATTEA
T6 sequence (Q8N1Q1 whole entry): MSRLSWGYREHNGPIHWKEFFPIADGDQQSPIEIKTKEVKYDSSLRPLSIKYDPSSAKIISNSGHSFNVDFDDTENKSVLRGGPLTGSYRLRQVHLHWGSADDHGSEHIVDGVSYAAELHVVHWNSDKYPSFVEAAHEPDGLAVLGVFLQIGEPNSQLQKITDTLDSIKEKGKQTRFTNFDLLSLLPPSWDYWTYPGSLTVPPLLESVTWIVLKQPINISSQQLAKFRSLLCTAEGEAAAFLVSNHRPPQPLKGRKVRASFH
T3 sequence (P35218 39-305): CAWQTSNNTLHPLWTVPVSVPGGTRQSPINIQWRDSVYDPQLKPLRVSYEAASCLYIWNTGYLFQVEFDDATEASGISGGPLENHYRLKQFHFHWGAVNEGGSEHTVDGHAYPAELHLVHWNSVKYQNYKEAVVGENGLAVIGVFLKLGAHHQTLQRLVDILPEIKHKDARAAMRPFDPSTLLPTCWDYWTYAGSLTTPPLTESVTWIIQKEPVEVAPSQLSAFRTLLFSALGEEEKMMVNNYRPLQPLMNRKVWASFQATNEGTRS
T9 sequence (O43570 25-354): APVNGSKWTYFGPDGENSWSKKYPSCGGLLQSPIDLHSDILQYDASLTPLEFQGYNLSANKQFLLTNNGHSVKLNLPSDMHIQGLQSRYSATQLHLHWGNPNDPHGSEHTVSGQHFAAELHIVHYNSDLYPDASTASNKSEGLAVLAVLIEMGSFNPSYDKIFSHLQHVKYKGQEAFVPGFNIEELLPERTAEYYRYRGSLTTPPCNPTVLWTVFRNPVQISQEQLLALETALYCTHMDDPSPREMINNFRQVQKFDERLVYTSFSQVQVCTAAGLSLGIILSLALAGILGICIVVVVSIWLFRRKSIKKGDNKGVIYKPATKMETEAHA

Structure (SMILES) | Intrinsic Gibbs energy change (ΔGint), CAXIV (CAXIV) [kcal/mol] | Intrinsic Gibbs energy change (ΔGint), CAII (CAII [1]) [kcal/mol] | Kd (CAII [1]) [nM] | Kd (CAVA) [nM] | Intrinsic Gibbs energy change (ΔGint), CAIV (CAIV) [kcal/mol] | Kd (CAIV) [nM] | Intrinsic Gibbs energy change (ΔGint), CAVI (CAVI) [kcal/mol] | Kd (CAVI) [nM] | Intrinsic Gibbs energy change (ΔGint), CAXIII (CAXIII [3]) [kcal/mol] | Intrinsic Gibbs energy change (ΔGint), CAI (CAI [4]) [kcal/mol] | Kd (CAI [4]) [nM] | Kd (CAIII) [nM] | Intrinsic Gibbs energy change (ΔGint), CAXII (CAXII [5]) [kcal/mol] | Kd (CAXII [5]) [nM] | Intrinsic Gibbs energy change (ΔGint), CAVB (CAVB) [kcal/mol] | Kd (CAVB) [nM] | Intrinsic Gibbs energy change (ΔGint), CAIX (CAIX [6]) [kcal/mol] | Kd (CAIX [6]) [nM] | Intrinsic Gibbs energy change (ΔGint), CAVII (CAVII) [kcal/mol] | Kd (CAVII) [nM] | also measured
CCOC(=O)c1sc(N(CCC(=O)NN)c2ccc(S(N)(=O)=O)cc2)nc1C [Compound 33] | -14.3 | -13.8 | 500 | ≥ 200000 | -13 | 2800 | -12.4 | 25000 | -13.1 | -12.2 | 3100 | ≥ 200000 | -11.5 | 26000 | -14.7 | 100 | -14 | 630 | -13.4 | 1100 | melting point: 206 to 207 °C; Kd (CAXIV): 910 nM; pKa ([2]; value marked *: average of measured compounds, used for calculation, read-out: Sulfonamide pKa (not determined, average of all measured compounds)): 10.1; Kd (CAXIII [7]): 830 nM
NS(=O)(=O)c1ccc(N(CCC(=O)O)c2nc(-c3ccc(Cl)cc3)c(Cl)s2)cc1 [Compound 36, 3-((5-Chloro-4-(4-chlorophenyl)thiazol-2-yl)(4-sulfamoylphenyl)amino)propanoic acid] | -15.6 | -15.5 | 23 to 40 | ≥ 200000 | -13.1 | 3300 | -13.4 | 6300 | -15.1 | -15.5 | 20 | 17000 | -14.9 | 120 | -14 | 400 | -16.1 | 23 | -15.7 | 33 | Intrinsic Gibbs energy change (ΔGint), CAVA (CAVA; 37 °C, calculated (Equation 5)): ≤ -10.4 kcal/mol; pKa [2, 12]: 10.2; Intrinsic Gibbs energy change (ΔGint), CAIII (CAIII): -12.2 kcal/mol; Kd (CAXIII [7]): 23 to 40 nM
Cc1csc(N(CCC(=O)O)c2ccc(S(N)(=O)=O)cc2)n1 [Compound 27, 3-((4-Methylthiazol-2-yl)(4-sulfamoylphenyl)amino)propanoic acid] | -15.8 | -14.7 | 220 | ≥ 200000 | -13.9 | 1400 | -13 | 18000 | -13.5 | -15 | 67 | 63000 | -15 | 180 | -14.1 | 560 | -16 | 48 | -14.7 | 250 | melting point: 162 to 163 °C; Kd (CAXIV): 170 nM; pKa [2, 12]: 10.4; Intrinsic Gibbs energy change (ΔGint), CAIII (CAIII): -11.6 kcal/mol; Kd (CAXIII [7]): 870 nM
NC(=S)N(CCC(=O)O)c1ccc(S(N)(=O)=O)cc1 [Compound 26] |  |  |  |  |  |  |  |  |  |  |  |  |  |  |  |  |  |  |  |  | Kd (CAIX [8]): 10000 nM; Kd (CAII [9]): 5000 nM; Kd (CAI [10]): 10000 nM; Kd (CAXII [11]): 33000 nM
